Laboratory results reported in patent US9034898B2, “FGF receptor (FGFR) agonist dimeric compounds, process for the preparation thereof and therapeutic use thereof” (Sanofi, priority 2011, dated 2015).

Legend:
[1] = test system: human venous endothelial cells (HUVECs); assay: In vitro angiogenesis model (pseudotubule length of HUVECs on matrigel/collagen); format: cell-based; parameters: % activation with respect to FGF2 (in vitro): concentration or dose not given beside the values; conditions: for activity on the in vitro angiogenesis model: at a concentration of 1 nM, HUVECs, 24 hours; for EC50 / % activation with respect to FGF2 (in vitro): in vitro; for % activation with respect to FGF2 (in vitro): relative to FGF2
Method: In Vitro Angiogenesis Model
The products are tested for their ability to cause rearrangement of human venous endothelial cells (HUVECs) on matrigel (Becton dickinson 356230) diluted in collagen (rat tail collagen, type I: Becton dickinson 354236). After 24 hours, the cells are observed under a microscope with a X4 objective and the length of the pseudotubules is measured by means of an image analyser (BIOCOM-logiciel Visiolab 2000).
By way of example, compounds 1, 2, 3, 5 and 9 are active at a concentration of 1 nM on the in vitro angiogenesis model.

BalbC mice = assay: Sponge angiogenesis model (haemoglobin content of implanted cellulose sponge); format: in vivo; conditions: concentration of 300 μM injected into the sponge, eighth day after implantation
Text: Sponge Angiogenesis Model
The sponge angiogenesis model is an adaptation of the technique of Andrade et al [Andrade S P, Machado R., Teixeir A S, Belo A V, Tarso A M, Beraldo W T—Sponge-induced angiogenesis in mice and the pharmacological reactivity of the neovasculature quantitated by fluorimetric method, Microvascular Research, 1997, 54: 253-61.]
The mice used are BalbC females from Charles River Laboratory, 7 to 10 weeks old. The animals are anaesthetized by intraperitoneal injection of a xylazine/ketamine mixture ([…] in 0.9% NaCl). The animal's back is shaved and disinfected with hexomedine. A subcutaneous 5 ml pocket of air is made on the animal's back with sterile air. An incision is then made (approximately 1 cm) on the top of the animal's back in order to implant the sponge into the pocket. The biocompatible cellulose sponge (Cellspon, Interchim, 10 mm in diameter) was sterilized beforehand (autoclave 20 min at 120° C.) and is impregnated with 50 μl of sterile solution containing the test product. Suturing is performed by inserting two 9-mm stainless steel autoclip staples (Subra). The wound is again disinfected with hexomedine. […]
To assay the haemoglobin, 50 μl of each sample are deposited in a 96-well plate, in duplicate. […] The OD values are read on a spectrophotometer at 405 nm, using the Biolise software (Tecan, France). […]

Structure (SMILES) | activity on the in vitro angiogenesis model [1] | EC50 [1] | % activation with respect to FGF2 (in vitro) [1] | EC50 ([1]; Homo sapiens, HUVEC) | activity on the in vivo angiogenesis model (BalbC mice)
O=C(O)c1cc(-c2cc(C(=O)NCCCOCCOCCCNC(=O)c3cc(-c4ccc(F)c(C(=O)O)c4)nc4[nH]nc(-c5ccccc5)c34)c3c(-c4ccccc4)n[nH]c3n2)ccc1F [Compound 1, 3,3′-{ethane-1,2-diylbis[oxypropane-3,1-diylcarbamoyl(3-phenyl-1H-pyrazolo[3,4-b]pyridine-4,6-diyl)]}bis(6-fluorobenzoic acid)] | active | < 1 nM | 84% |  | 
O=C(O)c1cc(-c2cc(C(=O)NCCCOCCOCCOCCCNC(=O)c3cc(-c4ccc(F)c(C(=O)O)c4)nc4[nH]nc(-c5ccccc5)c34)c3c(-c4ccccc4)n[nH]c3n2)ccc1F [Compound 2, 5-[4-({15-[6-(3-carboxy-4-fluorophenyl)-3-phenyl-1H-pyrazolo[3,4-b]pyridin-4-yl]-15-oxo-4,7,10-trioxa-14-azapentadec-1-yl}carbamoyl)-3-phenyl-1H-pyrazolo[3,4-b]pyridin-6-yl]-2-fluorobenzoic acid] | active |  | 84% | < 1 nM | active
O=C(O)c1cc(-c2cc(C(=O)NCCOCCOCCOCCOCCNC(=O)c3cc(-c4ccc(F)c(C(=O)O)c4)nc4[nH]nc(-c5ccccc5)c34)c3c(-c4ccccc4)n[nH]c3n2)ccc1F [Compound 3, 5-[4-({16-[6-(3-carboxy-4-fluorophenyl)-3-phenyl-1H-pyrazolo[3,4-b]pyridin-4-yl]-16-oxo-3,6,9,12-tetraoxa-15-azahexadec-1-yl}carbamoyl)-3-phenyl-1H-pyrazolo[3,4-b]pyridin-6-yl]-2-fluorobenzoic acid] | active |  | 75% | < 1 nM | 
O=C(O)c1cc(-c2cc(C(=O)NCCCOCCOCCOCCOCCOCCCNC(=O)c3cc(-c4ccc(F)c(C(=O)O)c4)nc4[nH]nc(-c5ccccc5)c34)c3c(-c4ccccc4)n[nH]c3n2)ccc1F [Compound 5, 5-[4-({21-[6-(3-carboxy-4-fluorophenyl)-3-phenyl-1H-pyrazolo[3,4-b]pyridin-4-yl]-21-oxo-4,7,10,13,16-pentaoxa-20-azahenicos-1-yl}carbamoyl)-3-phenyl-1H-pyrazolo[3,4-b]pyridin-6-yl]-2-fluorobenzoic acid] | active |  | 124% | < 1 nM | 
NC(=O)c1cc(-c2ccc(F)c(C(=O)O)c2)nc2[nH]nc(-c3cccc(C(=O)NCCCOCCOCCOCCCNC(=O)c4cccc(-c5n[nH]c6nc(-c7ccc(F)c(C(=O)O)c7)cc(C(N)=O)c56)c4)c3)c12 [Compound 6, 5-(4-carbamoyl-3-{3-[(15-{3-[4-carbamoyl-6-(3-carboxy-4-fluorophenyl)-1H-pyrazolo[3,4-b]pyridin-3-yl]phenyl}-15-oxo-4,7,10-trioxa-14-azapentadec-1-yl)carbamoyl]phenyl}-1H-pyrazolo[3,4-b]pyridin-6-yl)-2-fluorobenzoic acid] |  |  | 50% | 3 nM | 
NC(=O)c1cc(-c2ccc(F)c(C(=O)O)c2)nc2[nH]nc(-c3ccc(C(=O)NCCCOCCOCCOCCCNC(=O)c4ccc(-c5n[nH]c6nc(-c7ccc(F)c(C(=O)O)c7)cc(C(N)=O)c56)cc4)cc3)c12 [Compound 8, 5-(4-carbamoyl-3-{4-[(15-{4-[4-carbamoyl-6-(3-carboxy-4-fluorophenyl)-1H-pyrazolo[3,4-b]pyridin-3-yl]phenyl}-15-oxo-4,7,10-trioxa-14-azapentadec-1-yl)carbamoyl]phenyl}-1H-pyrazolo[3,4-b]pyridin-6-yl)-2-fluorobenzoic acid] |  |  | 20% | < 100 nM | 
NC(=O)c1cc(-c2ccc(F)c(C(=O)O)c2)nc2[nH]nc(-c3ccc(C(=O)NCCOCCOCCNC(=O)c4ccc(-c5n[nH]c6nc(-c7ccc(F)c(C(=O)O)c7)cc(C(N)=O)c56)cc4)cc3)c12 [Compound 9, 3,3′-{ethane-1,2-diylbis[oxyethane-2,1-diylcarbamoylbenzene-4,1-diyl(4-carbamoyl-1H-pyrazolo[3,4-b]pyridine-3,6-diyl)]}bis(6-fluorobenzoic acid)] | active | < 1 nM | 60% |  | 
